Measured values taken from the OPERA property sets (Mansouri et al. 2018).

CCOCc1ccccc1
logP: 2.16

CCN1CC(C(O)C(CC2CCCCC2)NC(=O)C(Cc2cnc[nH]2)NC(=O)C(CC(=O)N(C)CCOCOC)Cc2ccccc2)OC1=O (stereo unspecified)
logP: 2.49

O=C(O)c1cc2ccccc2cc1O
logP: 3.05

Cc1cccc(C)c1N(CCCN1CCCCC1)C(=O)Cc1ccccc1
logP: 5.28

OC1(c2cc(Cl)ccc2Cl)CCCCC1n1cncn1 (stereo unspecified)
logP: 3.24

O=C(CN1CCCCC1)NCc1ccccc1
logP: 2.27

COC1CC2(C)C(O)C(F)CC2C2CCc3cc(O)ccc3C12 (stereo unspecified)
logP: 2.35

Cc1c2ccccc2cc2ccccc12
logP: 5.07

CC1(C)CCC(c2ccccc2)(N2CCCCC2)CC1
logP: 6.39

CC1c2nc3ccccc3c(=O)n2CN1CCc1ccccc1 (stereo unspecified)
logP: 1.8

Cc1cn([C@H]2CC[C@@H](CO)O2)c(=O)[nH]c1=O
logP: -0.6

CCC1(CC)C(=O)NC(=O)N=C1OC(C)C
logP: 1.86

O=C(c1ccc(F)cc1)c1ccc2n1CCC2C(=O)O (stereo unspecified)
logP: 2.82

Cc1ccccc1OCC(O)CNCCOc1ccc(C(N)=O)cc1 (stereo unspecified)
logP: 2.22

O=C(NN1CC=CCC1)c1ccco1
logP: 0.81

O=C1c2ccccc2C(=O)C1c1ccc(Br)cc1
logP: 3.76

COc1ccc(Cc2cnc(N)nc2N)cc1N(C)C
logP: 1.68

CCCOC(=O)CNC(=O)CCCCSc1ncnc2nc[nH]c12
logP: 1.37

CC(=O)NCc1cccc(OCC(O)CNC(C)C)c1 (stereo unspecified)
logP: 0.34

C#CCC(O)(CC#C)c1cccnc1
logP: 1.29

COC(=O)N(C)SN(C)C(=O)ON=C(C)SC
logP: 1.4

Cc1ccc(O)c(CO)c1
logP: 0.97

CC(C)(C)c1ccc(CC(=O)O)cc1
logP: 2.98

CCN(CC)C(=O)c1cccc(C)c1
logP: 2.18

CC(=O)c1ccccc1Br
logP: 2.28

COc1cccc2c1C(=O)c1c(O)c3c(c(O)c1C2=O)CC(O)(C(C)=O)CC3OC1CC(N2CCOCC2C#N)C(O)C(C)O1 (stereo unspecified)
logP: 2.59
